The first assay deals with T1, PD-1/PD-L1 interaction (Homo sapiens, UniProt Q9NZQ7).
T1 construct: expressed in transfected cells; host or cells: CHO cells (aAPC-PD-L1) co-cultured with Jurkat cells overexpressing PD-1 and an NFAT-luciferase reporter
T1 sequence (Q9NZQ7 19-290): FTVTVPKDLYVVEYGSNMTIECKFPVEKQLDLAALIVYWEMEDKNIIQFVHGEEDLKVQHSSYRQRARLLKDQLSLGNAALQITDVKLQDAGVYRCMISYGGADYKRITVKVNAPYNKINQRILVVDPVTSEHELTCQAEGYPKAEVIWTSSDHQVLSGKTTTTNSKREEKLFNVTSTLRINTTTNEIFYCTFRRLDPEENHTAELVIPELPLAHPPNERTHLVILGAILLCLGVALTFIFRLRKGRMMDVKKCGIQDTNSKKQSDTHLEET
The experiment in a line: PD-1/PD-L1 NFAT reporter co-culture assay. In kind it is cell-based.
Conditions: not given
How it is done:
PD-1/PD-L1 NEAT Reporter Assay:
Compounds were tested in afunctional co-culture reporter assay in which TCR-mediated NFAT activity is inhibited by the engagement of PD-1 with PD-L1. […] CHO cells expressing surface-bound anti-CD3 antibodies and PD-L1 (artificial antigen presenting cells, aAPC-PD-L1) were first seeded overnight. Jurkat cells overexpressing PD-1 and expressing a luciferase construct under NFAT control are diluted in RPMI assay medium (RPMI 1640 with 2% FBS), mixed with compounds, and immediately seeded on the monolayer of aAPC-PD-L1. The co-culture is then incubated for 6 hrs at 37° C. Luciferase activity is assessed by adding the ONE-Glo reagent and measuring luminescence with a plate reader. EC50 values are calculated from the fit of the dose-response curves to a four-parameter equation (Table 3).
`COc1nc(OCc2cccc(-c3cccc(COc4nc(OC)c(CNCc5cc(O)no5)cc4Cl)c3C)c2C)c(Cl)cc1CNCc1cc(O)no1` [Example 63, 5,5′-(((((((2,2′-dimethyl-[1,1′-biphenyl]-3,3′-diyl)bis(methylene))bis(oxy))bis(5-chloro-2-methoxypyridine-6,3-diyl))bis(methylene))bis(azanediyl))bis(methylene))bis(isoxazol-3-ol)] showed an EC50 of at least 50000 nM.

Still in this assay, the particulars now being: Jurkat PD-1 NFAT-luciferase cells co-cultured with aAPC-PD-L1 CHO cells, 6 hrs at 37° C.; read-out: EC50 NFAT Luciferase.
On to `COc1nc(OCc2cccc(-c3cccc(COc4nc(OC)c([C@@H]5NCC[C@@H]5C(=O)O)cc4Cl)c3C)c2C)c(Cl)cc1[C@@H]1NCC[C@@H]1C(=O)O` [Example 104, (2R,2′R,3S,3′S)-2,2′-((((2,2′-dimethyl-[1,1′-biphenyl]-3,3′-diyl)bis(methylene))bis(oxy))bis(5-chloro-2-methoxypyridine-6,3-diyl))bis(pyrrolidine-3-carboxylic acid)], for which the EC50 is at least 50000 nM.
On to `COc1nc(OCc2cccc(-c3cccc(COc4nc(OC)c(CN[C@H](C(=O)O)c5ccccc5)cc4Cl)c3C)c2C)c(Cl)cc1CN[C@H](C(=O)O)c1ccccc1` [Example 86, (2S,2′S)-2,2′-((((((2,2′-dimethyl-[1,1′-biphenyl]-3,3′-diyl)bis(methylene))bis(oxy))bis(5-chloro-2-methoxypyridine-6,3-diyl))bis(methylene))bis(azanediyl))bis(2-phenylacetic acid)], for which the EC50 is at least 50000 nM.
On the same count and under the same terms, to `COc1nc(OCc2cccc(-c3cccc(COc4nc(OC)c(C(=O)NC[C@@H](O)CC(=O)O)cc4Cl)c3C)c2C)c(Cl)cc1C(=O)NC[C@@H](O)CC(=O)O` [Example 237, (3S,3′S)-4,4′-((6,6′-(((2,2′-dimethyl-[1,1′-biphenyl]-3,3′-diyl)bis(methylene))bis(oxy))bis(5-chloro-2-methoxynicotinoyl))bis(azanediyl))bis(3-hydroxybutanoic acid)] belongs at least 50000 nM.
For the molecule `COc1nc(OCc2cccc(-c3cccc(COc4nc(OC)c(CNC[C@@H](O)CC(=O)O)cc4Br)c3Cl)c2Cl)ccc1CNC[C@@H](O)CC(=O)O` [Example 190, (S)-4-(((6-((3′-(((3-Bromo-5-((((S)-3-carboxy-2-hydroxypropyl)amino)methyl)-6-methoxypyridin-2-yl)oxy)methyl)-2,2′-dichloro-[1,1′-biphenyl]-3-yl)methoxy)-2-methoxypyridin-3-yl)methyl)amino)-3-hydroxybutanoic acid], the EC50 was found to be 516 nM.
Regarding `Cc1c(COc2nc(OCc3cc(C#N)cc(C#N)c3)c(CNCC(=O)O)cc2Cl)cccc1-c1cccc(COc2nc(OCc3cc(C#N)cc(C#N)c3)c(CNCC(=O)O)cc2Cl)c1C` [Example 125, 2,2′-((((((2,2′-dimethyl-[1,1′-biphenyl]-3,3′-diyl)bis(methylene))bis(oxy))bis(5-chloro-2-((3,5-dicyanobenzyl)oxy)pyridine-6,3-diyl))bis(methylene))bis(azanediyl))diacetic acid], the EC50 was found to be 158 nM.
On the same count and under the same terms, to `Cc1c(-c2ccc(OCCNC[C@H](O)CC(=O)O)cc2)cccc1-c1cccc(-c2ccc(OCCNC[C@H](O)CC(=O)O)cc2)c1C` [Example 107, (3R,3′R)-4,4′-((((2′,2″-dimethyl-[1,1′:3′,1″:3″,1′″-quaterphenyl]-4,4′″-diyl)bis(oxy))bis(ethane-2,1-diyl))bis(azanediyl))bis(3-hydroxybutanoic acid)] belongs 35000 nM.
In the case of `COc1nc(OCc2cccc(-c3cccc(COc4nc(OC)c(C(CC(=O)O)N(C)C)cc4Cl)c3C)c2C)c(Cl)cc1C(CC(=O)O)N(C)C` (mixture of isomers) [Example 236, 3,3′-((((2,2′-dimethyl-[1,1′-biphenyl]-3,3′-diyl)bis(methylene))bis(oxy))bis(5-chloro-2-methoxypyridine-6,3-diyl))bis(3-(dimethylamino)propanoic acid)], the EC50 came to 5030 nM.
Regarding `C[C@@](CO)(NCc1cc(Br)c(OCc2cccc(-c3cccc(COc4nc(OCc5cncc(C#N)c5)c(CN[C@@](C)(CO)C(=O)O)cc4Br)c3Cl)c2Cl)nc1OCc1cncc(C#N)c1)C(=O)O` [Example 197, (2S,2′S)-2,2′-((((((2,2′-Dichloro-[1,1′-biphenyl]-3,3′-diyl)bis(methylene))bis(oxy))bis(5-bromo-2-((5-cyanopyridin-3-yl)methoxy)pyridine-6,3-diyl))bis(methylene))bis(azanediyl))bis(3-hydroxy-2-methylpropanoic acid)], the half-maximal effective concentration (EC50) worked out at 98 nM.
Same read-out and setting: to `COc1nc(OCc2cccc(-c3cccc(COc4nc(OC)c(CN5CCNC(=O)C5)cc4Br)c3C)c2C)c(Br)cc1CN1CCNC(=O)C1` [Example 270, 4,4′-(((((2,2′-dimethyl-[1,1′-biphenyl]-3,3′-diyl)bis(methylene))bis(oxy))bis(5-bromo-2-methoxypyridine-6,3-diyl))bis(methylene))bis(piperazin-2-one)] belongs at least 50000 nM.
The same measure, in the same setting: to `COc1nc(OCc2cccc(-c3cccc(COc4nc(OC)c(CN5CC(NC(C)=O)C5)cc4Cl)c3C)c2C)c(Cl)cc1CN1CC(NC(C)=O)C1` [Example 37, N,N′-((((((2,2′-dimethyl-[1,1′-biphenyl]-3,3′-diyl)bis(methylene))bis(oxy))bis(5-chloro-2-methoxypyridine-6,3-diyl))bis(methylene))bis(azetidine-1,3-diyl))diacetamide] belongs 894 nM; to `COc1nc(O[C@H]2CCc3c(-c4cccc(-c5ccc(OCCNC[C@@H](O)CC(=O)O)cc5)c4C)cccc32)ccc1CNCC(=O)O` [Example 103, (S)-4-((2-((3′-((S)-1-((5-(((carboxymethyl)amino)methyl)-6-methoxypyridin-2-yl)oxy)-2,3-dihydro-1H-inden-4-yl)-2′-methyl-[1,1′-biphenyl]-4-yl)oxy)ethyl)amino)-3-hydroxybutanoic acid], 14900 nM; to `COc1nc(OCc2cccc(-c3cccc(COc4nc(OC)c(CNC56CC(C(=O)O)(C5)C6)cc4Cl)c3C)c2C)c(Cl)cc1CNC12CC(C(=O)O)(C1)C2` [Example 85, 3,3′-((((((2,2′-dimethyl-[1,1′-biphenyl]-3,3′-diyl)bis(methylene))bis(oxy))bis(5-chloro-2-methoxypyridine-6,3-diyl))bis(methylene))bis(azanediyl))bis(bicyclo[1.1.1]pentane-1-carboxylic acid)], 9770 nM.
The same measure, in the same setting: under `Cc1c(COc2cc(OCc3cccc(C#N)c3)c(CNCCO)cc2Cl)cccc1-c1cccc(COc2cc(OCc3cccc(C#N)c3)c(CNCCO)cc2Cl)c1C` [Example 284, 3,3′-((((((2,2′-dimethyl-[1,1′-biphenyl]-3,3′-diyl)bis(methylene))bis(oxy))bis(4-chloro-6-(((2-hydroxyethyl)amino)methyl)-3,1-phenylene))bis(oxy))bis(methylene))dibenzonitrile] stands 1460 nM.
`COc1nc(OCc2cccc(-c3cccc(COc4nc(OC)c(CNC[C@@H](O)CC(=O)O)cc4Br)c3Cl)c2Cl)c(Br)cc1CNC[C@@H](O)CC(=O)O` [Example 189, (3S,3′S)-4,4′-((((((2,2′-Dichloro-[1,1′-biphenyl]-3,3′-diyl)bis(methylene))bis(oxy))bis(5-bromo-2-methoxypyridine-6,3-diyl))bis(methylene))bis(azanediyl))bis(3-hydroxybutanoic acid)]: the EC50 came to 106 nM.
On the same count and under the same terms, under `CNC(=O)C1CN(Cc2cc(Br)c(OCc3cccc(-c4cccc(COc5nc(OC)c(CN6CC(C(=O)NC)C6)cc5Br)c4C)c3C)nc2OC)C1` [Example 256, 1,1′-(((((2,2′-dimethyl-[1,1′-biphenyl]-3,3′-diyl)bis(methylene))bis(oxy))bis(5-bromo-2-methoxypyridine-6,3-diyl))bis(methylene))bis(N-methylazetidine-3-carboxamide)] stands 758 nM; under `Cc1c(COc2nc(OCCc3cc[nH]n3)c(CNC[C@@H](O)CC(=O)O)cc2Br)cccc1-c1cccc(COc2nc(OCCc3cc[nH]n3)c(CNC[C@@H](O)CC(=O)O)cc2Br)c1C` [Example 142, (3S,3′S)-4,4′-((((((2,2′-dimethyl-[1,1′-biphenyl]-3,3′-diyl)bis(methylene))bis(oxy))bis(2-(2-(1H-pyrazol-3-yl)ethoxy)-5-bromopyridine-6,3-diyl))bis(methylene))bis(azanediyl))bis(3-hydroxybutanoic acid)], 235 nM.
Same read-out and setting: to `COc1nc(OCc2cccc(-c3cccc(COc4nc(OC)c(CNC(CO)c5nn[nH]n5)cc4Cl)c3C)c2C)c(Cl)cc1CNC(CO)c1nn[nH]n1` (centres unmarked) [Example 52, 2,2′-((((((2,2′-dimethyl-[1,1′-biphenyl]-3,3′-diyl)bis(methylene))bis(oxy))bis(5-chloro-2-methoxypyridine-6,3-diyl))bis(methylene))bis(azanediyl))bis(2-(2H-tetrazol-5-yl)ethan-1-ol)] belongs 19800 nM; to `COc1nc(OCc2cccc(-c3cccc(COc4nc(OC)c(CN[C@H]5CCC[C@H]5O)cc4Cl)c3C)c2C)c(Cl)cc1CN[C@H]1CCC[C@H]1O` [Example 226, (1R,1′R,2S,2′S)-2,2′-((((((2,2′-dimethyl-[1,1′-biphenyl]-3,3′-diyl)bis(methylene))bis(oxy))bis(5-chloro-2-methoxypyridine-6,3-diyl))bis(methylene))bis(azanediyl))bis(cyclopentan-1-ol)], 775 nM; to `COc1nc(OCc2cccc(-c3cccc(COc4nc(OC)c(CN5CC(O)C5)cc4Br)c3C)c2C)c(Br)cc1CN1CC(O)C1` [Example 255, 1,1′-(((((2,2′-dimethyl-[1,1′-biphenyl]-3,3′-diyl)bis(methylene))bis(oxy))bis(5-bromo-2-methoxypyridine-6,3-diyl))bis(methylene))bis(azetidin-3-ol)], at least 50000 nM.

The values above are taken from US12590062B2, “PD-1/PD-L1 inhibitors” (Gilead Sciences, Inc., priority 2017, dated 2026).
